Each structure is given as a SMILES string. Entries after “also recorded” stand apart in the source; their conditions may differ.

These results are taken from patent US20090253745A1, “MODULATORS OF OCULAR OXIDATIVE STRESS” (SIRION THERAPEUTICS, INC., priority 2007, published 2009).

Data set [1] concerns SOD1 mutant mice. The data set is described as follows: Fluorescein angiography: hypopigmentation and integrity of retinal vessels in SOD1 mutant mice. The format is in vivo, mouse. As for the experimental part: FIG. 10. TAPP1 improves integrity of retinal vessels in SOD1 mutant mice. A late stage pathology which has been documented in SOD1 mutant mice is choroidal neovascularization (CNV). This pathology is detected by fluorescein angiography. In this technique, a fluorescent dye (fluorescein) is injected into mice and the flow of this dye through vessels of the retina is monitored using a specialized fundus camera. Leakage of the dye outside the retinal vessels indicates compromised vessel integrity and/or CNV. SOD1 mutant mice (aged 6 months) which have been administered the TAPP1 vehicle (treatment protocol is described above) show a prominent area of dye leakage in the area surrounding the optic disc (indicated by arrow).
A Zeiss FF3 fundus camera with a camera back containing a barrier filter for fluorescein angiography (FA) is used. Animals are placed in a restraint built onto the fundus camera and injected with 25% sodium fluorescein (0.01 ml in sterile saline per 5-6 gm of body weight, i.p.). Immediately following the injection, a timer on the camera back is engaged so that elapsed time in seconds is recorded for each picture. The fluorescein images are recorded on Fujichrome Velvia RVP 100 color slide film.

Data set [2] is described as follows: in vitro. The data set is classed as in vitro ADME. Particulars: mouse; 1 mM TAPP1, anterior segments of twelve eyeglobes in 0.5 ml MEM, 37° C.; read-out: half-life of hydrolysis. Here is the method:
FIG. 2. In vitro hydrolysis of TAPP1 by anterior segments from mouse eyeglobes. Anterior segments were isolated from twelve wild-type mouse eyeglobes, and cultured in 0.5 ml of MEM media. TAPP1 was added to the culture to a final concentration of 1 mM, and the sample was incubated at 37° C. At 0, 1, 5, 15, 30, 60 and 120 min following incubation, 20 μl aliquot samples were removed from the culture. The aliquots were mixed with equal volume of ice-cold methanol, and incubated on ice for 10 min, followed by centrifugation at 25,000 g to precipitate proteins. TAPP1 content in the supernatant was analyzed by a capillary reverse phase C18 column. The relative quantity of TAPP1 was determined by integration of chromatographic peak area. […] Release of the two products of TAPP1 hydrolysis (designated HP-1 and HP-2) was […] to the rate of TAPP1 hydrolysis (not shown). Corneal esterases may be largely responsible for the hydrolysis of TAPP1.
The compound TAPP1 (C18H24N4O3), MW 344.18, is formulated as described above. A 40 mM solution of TAPP1 is used. […] TAPP content of the supernatant is analyzed by a capillary reverse phase C18 column. […] The relative quantity of the TAPP is determined by area integration of the TAPP elution peak. […] Isoprostanes are measured with a commercially available in vitro assay kit.

Data set [3] relates to eyeglobes of mice. Kind of data set: Ex vivo lens toxicity test, whole eyeglobes cultured overnight. Particulars: overnight incubation, media containing 45% β-cyclodextrin, 37° C. Here is the method:
FIG. 3. Ex vivo lens toxicity test of TAPP1. The eyeglobes of mice (aged 42 days) were cultured overnight either with control solution (media containing 45% β-cyclodextrin) or TAPP1 (TAPP1 in media containing 45% β-cyclodextrin), at 37° C. overnight, and in 95% air/5% CO2. […] To determine the effects of TAPP1 on isolated lenses, intact lenses were dissected from wild-type mouse eyeglobes, and incubated in DMEM media in a 96 well tissue culture plate. Groups of 3-6 lenses were incubated in 200 μl of media alone (negative control), 4% (2-hydroxypropyl)-β-cyclodextrin (carrier control), 8 mM hydrogen peroxide (H2O2, positive control for lens toxicity), 4 mM TAPP1-O (free radical form), 4 mM TAPP1-R (reduced form), and 4 mM of the two products of TAPP1-R hydrolysis (HP-1 and HP-2), respectively. β-cyclodextrin was included as a carrier control because all of the stock solutions contained 45% (2-hydroxypropyl)-β-cyclodextrin. The samples were incubated in 5% CO2 incubator at 37 C for 2 days.
The TAPP compositions are intended for topical delivery to the anterior portion of the eye. […] Morphological or anatomical effects are determined by comparison of TAPP-treated samples to samples incubated with either the TAPP vehicle or samples which are exposed (10 min treatment) to 100% ethanol (a positive control for lens toxicity). […]

By half-life is commonly meant the time needed for the level to fall by half in the phase considered. With `CC1(C)CC(OC(=O)c2cc(-c3ccncc3)n[nH]2)CC(C)(C)N1[O]` [TAPP1, 1-oxyl-2,2,6,6-tetramethylpiperidin-4-yl 3-(pyridin-4-yl)-1H-pyrazole-5-carboxylate], the “fluorescein dye leakage around the optic disc (integrity of retinal vessels)” value in data set [1] (SOD1 mutant mice aged 6 months, TAPP1 eye drops versus vehicle) was “no dye leakage; also recorded: reduced dye leakage”. Further, in data set [1] (SOD mutant mice aged 186 days, TAPP1 eye drops), the severity of hypopigmentation entry is listed as “reduces the severity of hypopigmentation”. Also, the half-life in data set [2] was around 10 min. Further, the “cataract or other overt toxicity in eyeglobes” value in data set [3] is reported as “no cataract or other overt toxicity”.
